According to patent US7816349B2, “Substituted pyrrolidinones as inhibitors of 11-beta-hydroxysteroid dehydrogenase 1” (Eli Lilly and Company, priority 2006, dated 2010):

Legend:
[1] = test system: cortisone conversion to cortisol (11β-HSD1); assay: Acute In Vivo Cortisone Conversion Assay; design: species or system male C57BL/6 mice; conditions: mice, oral dose 10 mg/kg, cortisone challenge s.c. 30 mg/kg, 16 hours post compound dose, serum cortisol
Description: Acute In Vivo Cortisone Conversion Assay
In general, compounds are dosed orally into mice, the mice are challenged with a subcutaneous injection of cortisone at a set timepoint after compound injection, and the blood of each animal is collected some time later. Separated serum is then isolated and analyzed for levels of cortisone and cortisol by LC-MS/MS, followed by calculation of mean cortisol and percent inhibition of each dosing group. Specifically, male C57BL/6 mice are obtained from Harlan Sprague Dawley at average weight of 25 grams. Exact weights are taken upon arrival and the mice randomized into groups of similar weights. Compounds are prepared in 1% w-w HEC, 0.25% w-w polysorbate 80, 0.05% w-w Dow Corning antifoam #1510-US at various doses based on assumed average weight of 25 grams. Compounds are dosed orally, 200 μl per animal, followed by a subcutaneous dose, 200 μl per animal, of 30 mg/kg cortisone at 1 to 24 hours post compound dose. At 10 minutes post cortisone challenge, each animal is euthanized for 1 minute in a CO2 chamber, followed by blood collection via cardiac puncture into serum separator tubes. Once fully clotted, tubes are spun at 2500×g, 4° C. for 15 minutes, the serum transferred to wells of 96-well plates (Corning Inc, Costar #4410, cluster tubes, 1.2 ml, polypropylene), and the plates are frozen at −20° C. until analysis by LC-MS/MS. […]

[2] = biological target: T1, 11β-HSD1 in primary human aortic smooth muscle cells (AoSMC) (Homo sapiens, UniProt P28845); assay: Human Aortic Smooth Muscle Cell Assay (cortisone to cortisol conversion); type: cell-based; conditions: AoSMC induced with hTNFα; cortisol measured after 16 hours with cortisone
T1 construct: containing 12 ng/mL hTNFα to induce expression of 11β-HSD1; endogenous in cells; host or cells: primary human aortic smooth muscle cells (AoSMC), induced with hTNFα
Description: Human Aortic Smooth Muscle Cell Assay
Primary human aortic smooth muscle cells (AoSMC) are cultured in 5% FBS growth medium to a passage number of 6, then pelleted by centrifugation and resuspended at a density of 9×10^4 cells/mL in 0.5% FBS assay medium containing 12 ng/mL hTNFα to induce expression of 11β-HSD1. Cells are seeded into 96-well tissue culture assay plates at 100 μL/well (9×10^3 cells/well) and incubated for 48 hours at 37° C., 5% CO2. Following induction, cells are incubated for 4 hours at 37° C., 5% CO2 in assay medium containing test compounds then treated with 10 μL/well of 10 μM cortisone solubilized in assay medium, and incubated for 16 hours at 37° C., 5% CO2. Medium from each well is transferred to a plate for subsequent analysis of cortisol using a competitive fluorescence resonance time resolved immunoassay. […] Higher levels of free cortisol result in diminishing energy transfer from the Europium-IgG to the APC-cortisol complex resulting in less APC fluorescence. Fluorescent intensities for Europium and APC are measured using a LJL Analyst AD. Europium and APC […] is measured using 360 nm excitation and 615 nm and 650 nm emission filters respectively. […] Fluorescent intensities measured for APC are modified by dividing by the Eu fluorescence (APC/Eu). […]

[3] = biological target: recombinant human 11β-HSD type 1 enzyme (Homo sapiens, UniProt P28845); assay: 11β-HSD Type 1 Enzyme Assay (NADPH fluorescence); type: biochemical; conditions: three hour incubation at room temperature, read-out: Human 11-βHSD1 IC50
Description: 11β-HSD Type 1 Enzyme Assay
Human 11β-HSD type 1 activity is measured by assaying NADPH production by fluorescence assay. Solid compounds are dissolved in DMSO to a concentration of 10 mM. Twenty microliters of each are then transferred to a column of a 96-well polypropylene Nunc plate where they are further diluted 50-fold followed by subsequent two-fold titration, ten times across the plate with additional DMSO using a Tecan Genesis 200 automated system. Plates are then transferred to a Tecan Freedom 200 system with an attached Tecan Temo 96-well head and an Ultra 384 plate reader. Reagents are supplied in 96-well polypropylene Nunc plates and are dispensed individually into black 96-well Molecular Devices High Efficiency assay plates (40 μL/well capacity) in the following fashion: 9 μL/well of substrate (2.22 mM NADP, 55.5 μM Cortisol, 10 mM Tris, 0.25% Prionex, 0.1% Triton X100), 3 μL/well of water to compound wells or 3 μL to control and standard wells, 6 μL/well recombinant human 11β-HSD type 1 enzyme, 2 μL/well of compound dilutions. For ultimate calculation of percent inhibition, a series of wells are added that represent assay minimum and maximum: one set containing substrate with 667 μM carbenoxolone (background), and another set containing substrate and enzyme without compound (maximum signal). Final DMSO concentration is 0.5% for all compounds, controls and standards. Plates are then placed on a shaker by the robotic arm of the Tecan for 15 seconds before being covered and stacked for a three hour incubation period at room temperature. Upon completion of this incubation, the Tecan robotic arm removes each plate individually from the stacker and places them in position for addition of 5 μL/well of a 250 μM carbenoxolone solution to stop the enzymatic reaction. Plates are then shaken once more for 15 seconds then placed into an Ultra 384 microplate reader (355EX/460EM) for detection of NADPH fluorescence.

Sequence of recombinant human 11β-HSD type 1 enzyme (P28845 whole entry): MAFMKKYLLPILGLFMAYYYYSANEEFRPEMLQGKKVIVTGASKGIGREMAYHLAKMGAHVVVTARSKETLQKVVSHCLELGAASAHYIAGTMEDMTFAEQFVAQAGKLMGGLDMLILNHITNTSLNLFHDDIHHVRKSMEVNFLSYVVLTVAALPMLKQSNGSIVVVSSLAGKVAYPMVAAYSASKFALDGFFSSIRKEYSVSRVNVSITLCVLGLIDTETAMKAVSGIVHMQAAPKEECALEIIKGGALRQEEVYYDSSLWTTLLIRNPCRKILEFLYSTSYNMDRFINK
T1 sequence (P28845 whole entry): as above

## O=C(c1ccc(-c2cc(Cl)c(C[C@@H]3CCN(C4CCC(F)(F)CC4)C3=O)c(Cl)c2)cc1)N1CCC(C(F)(F)F)CC1 [Example 3, (R)-3-[3,5-Dichloro-4′-(4-trifluoromethyl-piperidine-1-carbonyl)-biphenyl-4-ylmethyl]-1-(4,4-difluoro-cyclohexyl)-pyrrolidin-2-one]
[1]
  % Inhibition after 16 hours (dose of 10 (mg/kg)): 60.7%
[2]
  IC50: 0.0551 µM
[3]
  IC50: 0.686 µM

## O=C(c1ccc(-c2cc(Cl)c(C[C@@H]3CCN([C@H]4CC[C@@H](F)CC4)C3=O)c(Cl)c2)cc1)N1CCC(C(F)(F)F)CC1 [Example 9, (R)-3-[3,5-Dichloro-4′-(4-trifluoromethyl-piperidine-1-carbonyl)-biphenyl-4-ylmethyl]-cis-1-(4-fluoro-cyclohexyl)-pyrrolidin-2-one]
[2]
  IC50: 0.0055 µM
[3]
  IC50: 0.584 µM

## O=C(c1ccc(-c2cc(Cl)c(C[C@@H]3CCN(C4CCC(F)(F)CC4)C3=O)c(Cl)c2)cc1)N1CCS(=O)(=O)CC1 [Example 4, (R)-3-[3,5-Dichloro-4′-(1,1-dioxo-1lamda*6*-thiomorpholine-4-carbonyl)-biphenyl-4-ylmethyl]-1-(4,4-difluoro-cyclohexyl)-pyrrolidin-2-one]
[1]
  % Inhibition after 16 hours (dose of 10 (mg/kg)): 50.2%
[3]
  IC50: 0.382 µM
